Measured values: patent US20120315283A1, “METHODS OF PROMOTING TISSUE GROWTH AND TISSUE REGENERATION” (DANA-FARBER CANCER INSTITUTE, INC., priority 2010, published 2012)
Entries after “also recorded” stand apart in the source; their conditions may differ.

How the values were obtained:
[1] = test system: Lewis lung carcinoma (LLC); experiment: Spontaneous LLC metastasis model (primary tumor resection); type: in vivo, mouse; details: for 14,15-EET-induced spontaneous LLC (lung) metastasis: EET antagonist 0.21 mg/mouse co-administered with 14,15-EET 15 μg/kg/day following LLC resection, day 12; for spontaneous LLC liver, kidney and lymph node metastasis / spontaneous LLC lung metastasis: after LLC resection, 12 days, t-AUCB and TUPS 10 mg/kg/day; for spontaneous LLC liver, kidney and lymph node metastasis: 14,15-EET 15 μg/kg/day, vehicle-treated mice do not develop liver metastasis; for spontaneous LLC lung metastasis: 14,15-EET and 14,15-DHET 15 μg/kg/day
Description: The role of non-cell autonomous effects of endothelial-derived EETs in tumor metastasis was unknown.

[2] = test system: Lewis lung carcinoma (LLC); experiment: Primary LLC tumor growth; type: in vivo, mouse; details: for primary LLC tumor growth: systemic, 14,15-EET 15 μg/kg/day minipump, t-AUCB in LLC-GFP tumors, 13 days of treatment, 14,15-EEZE 0.21 mg/mouse, established tumors
endothelial cells = experiment: Endothelial cell migration; type: cell-based
LLC tumor cells [3] = experiment: Tumor cell (LLC) migration; type: cell-based, mouse; details: 14,15-EEZE
B16F10 tumor cells = experiment: In vitro tumor cell production of VEGF, B16F10; type: cell-based, mouse; details: 14,15-EET
VEGF production = experiment: β-galactosidase staining of LLC tumors in VEGF-LacZ-Tr mice; type: in vivo, mouse; details: systemic 14,15-EET 15 μg/kg/day, absent in non-treated size-matched tumors
Description: However, analysis of LLC tumors in VEGF-LacZ-Tr mice in which the LacZ reporter was introduced into the VEGF locus (A. S. Maharaj, M. Saint-Geniez, A. E. Maldonado, P. A. D'Amore, Am J Pathol 168, 639 2006).

mice [4] = experiment: Liver regeneration following partial hepatectomy; type: in vivo, mouse; details: day 4 following partial hepatectomy, 14,15-EET 15 μg/kg/day via minipump, TUPS 10 mg/kg/day; for liver regeneration: vs vehicle/control; for increase in liver regeneration (liver/body weight ratio): vs vehicle
Description: There were no significant differences in liver/body weight ratio at baseline or following sham operation (FIG. 6D). […] Endothelial cell proliferation was increased in the Tie2-CYP2C8-Tr mice when compared to WT mice (FIG. 6D).

mice [5] = experiment: Endometriosis (ectopically implanted uterine tissue); type: in vivo, mouse; details: systemic 14,15-EET 15 μg/kg/day via minipump
LLC tumor cells [6] = experiment: In vitro tumor cell production of VEGF, LLC; type: cell-based, mouse; details: 14,15-EET
mice [7] = experiment: Lung growth following left pneumonectomy; type: in vivo, mouse; details: day 4 post left pneumonectomy, vs vehicle-treated mice, p<0.05
Description: As shown herein, epoxyeicosatrienoic acids (EETs) stimulate angiogenesis, in part via the VEGF signaling network. Since compensated lung growth is dependent on VEGF-induced angiogenesis, it was hypothesized that endothelial cells (ECs) stimulate lung growth via production of EETs. To confirm the effects of CYP2C8 overexpression, EET levels were increased by inhibition of soluble epoxide hydrolase (sEH) following left penumonectomy. […] In contrast, there was no significant change in baseline lung volume/body weight ratio after sham operation.
As shown herein, epoxyeicosatrienoic acids (EETs) stimulate angiogenesis, in part via the VEGF signaling network. Since compensated lung growth is dependent on VEGF-induced angiogenesis, it was hypothesized that endothelial cells (ECs) stimulate lung growth via production of EETs. Transgenic (Tg) mice with EC-specific overexpression of CYP2C8 (Tie2 promoter-driven) were used to study the consequence of increased EETs on lung growth following left pneumonectomy. To confirm the effects of CYP2C8 overexpression, EET levels were increased by inhibition of soluble epoxide hydrolase (sEH). EC-specific overexpression of CYP2C8 promoted contralateral lung growth following unilateral pneumectomy. Lung volume/body weight on day 4 post-pneumonectomy were increased by 23% (p<0.001) in Tg mice compared to WT mice (FIG. 12). […]

B16F10 melanoma = experiment: Spontaneous B16F10 metastasis after primary tumor resection; type: in vivo, mouse; details: 21 days of treatment post B16F10 resection, 10 mg/kg/day
mice [8] = experiment: Wound healing (ear punch wound assay); type: in vivo, mouse; details: systemic TUPS 10 mg/kg/day, day 4, vs vehicle
Description: In one embodiment, a full-thickness wound is effected by removing a section of skin (e.g., 1.5 mm diameter) from the dorsal surface (e.g., back) of an anesthetized animal by e.g., surgical incision. If so desired, the section of skin to be wounded can be pre-treated with a candidate pro-angiogenic factor prior to wound induction by e.g., subcutaneous injection. Alternatively, the wound can be treated using a candidate pro-angiogenic factor coincident with or immediately following wounding using methods known to one of skill in the art. The size, area, rate of healing, contraction and histology of the wound are assessed at different time points by methods known to those of skill in the art. The wound size of an animal is assessed by measuring the unclosed wound area compared to the original wound area. Wound healing can be expressed as either percent wound closure or percent wound closure rate. Wounds can be harvested at different time points by euthanizing the animal and removing a section of skin surrounding the wound site for histological analysis if so desired.
An ear punch model can also be used to assess rates of angiogenesis or wound healing, in a design similar to that for the full thickness dorsal back skin assay. The model consists of wounding the ear of an animal using a circular punch of a standard size (e.g., 2.25 mm). […]

[9] = TSP1 null mice, 14,15-EEZE 0.21 mg/mouse

## CCCCCC1OC1CCCCCCCC=CCCCC(=O)NS(C)(=O)=O (centres unmarked) [14,15-EEZE-mSI]
[1]
  14,15-EET-induced spontaneous LLC (lung) metastasis: inhibits lung metastasis induced by 14,15-EET; also recorded: inhibits 14,15-EET- (15 μg/kg/day) induced spontaneous LLC metastasis

## CCCCCC1OC1CCCCCCC/C=C\CCCC(=O)O (centres unmarked) [14,15-EEZE]
[2]; [9]
  primary LLC tumor growth in TSP1 null mice: does not significantly inhibit primary LLC tumor growth
  tumor suppression by the EET antagonist: 24%
[2]; WT mice, 14,15-EEZE 0.21 mg/mouse
  tumor suppression by the EET antagonist: 62%
[2]
  primary LLC tumor growth: reduced primary LLC growth; also recorded: inhibits primary LLC growth
Endothelial cells; 14,15-EEZE, dose-dependent
  endothelial cell migration (VEGF-induced), inhibition: inhibited endothelial migration in a dose-dependent fashion; also recorded: inhibits VEGF-induced endothelial cell
LLC tumor cells [3]
  migration of LLC tumor cells: no significant effect; also recorded: not tumor cell (LLC) migration
[1]
  14,15-EET-induced spontaneous LLC (lung) metastasis: reduced lung metastasis
[1]; EET antagonist co-administered with 14,15-EET following LLC resection
  14,15-EET-induced macroscopic liver and lymph node metastasis: prevented macroscopic liver and lymph node metastasis
[1]; LLC resection metastasis model, 14,15-EEZE 0.21 mg/mouse
  survival: prolongs survival
[1]; spontaneous LLC lung metastasis model, 14,15-EEZE 0.21 mg/mouse
  plasma VEGF levels: reduces plasma VEGF levels

## CCCCCC1OC1C/C=C\C/C=C\C/C=C\CCCC(=O)O (centres unmarked) [14,15-EET]
B16F10 tumor cells
  VEGF production by B16F10 tumor cells in vitro: no significant effect
[2]
  primary LLC tumor growth: significantly accelerated primary LLC tumor growth; also recorded: increases primary LLC tumor growth
VEGF production
  β-galactosidase staining (marker of VEGF production) in tumor endothelium and stromal fibroblasts: show β-galactosidase staining; also recorded: stained positively
Mice [4]
  liver regeneration: stimulates liver regeneration
  increase in liver regeneration (liver/body weight ratio): 21%
Mice [5]; WT mice, day 6, vs vehicle
  increase in endometriosis: 254%
Mice [5]; day 6, percent of lesions established and area of established lesions
  endometriosis: endometriosis is stimulated
LLC tumor cells [6]
  VEGF production by LLC tumor cells in vitro: no significant effect
[1]; WT mice, 14,15-EET via osmotic mini-pumps at time of LLC resection, 12 days after resection, vs vehicle
  increase in the number of surface lung metastases: 3 fold
[1]
  spontaneous LLC liver, kidney and lymph node metastasis: induction of liver, kidney and distant lymph node metastasis; also recorded: increases spontaneous LLC lung metastasis and distant femoral lymph node metastasis
  spontaneous LLC lung metastasis: increases spontaneous lung and distant femoral lymph node metastasis; also recorded: increases spontaneous LLC lung metastasis

## CS(=O)(=O)N1CCC(NC(=O)Nc2ccc(OC(F)(F)F)cc2)CC1 [TUPS, 1-(1-methanesulfonyl-piperidin-4-yl)-3-(4-trifluoromethoxy-phenyl)-urea]
Endothelial cells; VEGF-mediated
  VEGF-mediated endothelial migration: stimulate VEGF-mediated endothelial migration
Endothelial cells; basal, without VEGF
  basal endothelial migration: no significant effects
Mice [7]
  lung growth/body weight (lung regeneration): increase in lung regeneration; also recorded: stimulated lung growth/body weight
B16F10 melanoma
  spontaneous B16F10 axillary lymph node metastasis: dramatically stimulated; also recorded: increase spontaneous B16F10 axillary lymph node metastasis
Mice [8]
  wound healing: accelerates wound healing; also recorded: significantly accelerated wound healing
Mice [4]
  liver regeneration: increases liver regeneration
  increase in liver regeneration (liver/body weight ratio): 38%
[1]
  spontaneous LLC liver, kidney and lymph node metastasis: induces spontaneous liver metastasis; also recorded: dramatically stimulated; also recorded: increase liver metastasis
  spontaneous LLC lung metastasis: dramatically stimulated

## CCCCCC(O)C(O)C/C=C\C/C=C\C/C=C\CCCC(=O)O (centres unmarked) [14,15-DHET]
[1]
  spontaneous LLC lung metastasis: has no effect relative to control; also recorded: does not stimulate metastasis
